# Patent US20060128613A1, “Melanocortin receptor ligands” (The Procter & Gamble Company, priority 2003, published 2006)
# Assay: Composition and Method Examples A-E: treatment of obese human subjects to incur or maintain weight loss
# Format: in vivo
# Description: An obese human subject weighing 130 kg is treated by this method to incur weight loss. Specifically, once each day for a period of 6 months, the subject is administered, via intravenous injection, 15 ml of an aqueous solution comprising the following:
# An obese human subject weighing 150 kg is subjected to a weight-reduction program that achieves weight loss with reduced adiposity through a combination of a restricted diet and increased exercise. Specifically, once each day for a period of 6 months after weight loss, the subject is administered, via intravenous injection, 15 ml of an aqueous solution comprising the following:
# An obese human subject weighing 165 kg is subjected to a weight reduction program that achieves weight loss through a combination of restricted diet, increased exercise and subcutaneous injection daily of 15 mls of an aqueous solution comprising:
# Once the desired weight loss has been achieved, the patient's weight loss is maintained through continuation of the intravenous injection once each day for an additional period of 6 months.
# An obese human subject weighing 140 kg is treated by the present method to incur weight loss. Specifically, they are treated with an implantable subcutaneous pump that delivers 0.1 mg/kg of the compound of Example 31 over a 24 hour period. The pump contains a solution of the compound dissolved in a solution of 50% propylene glycol and 50% sterile water.
# An obese person weighing 150 kg is treated by this method to incur weight loss. Specifically, they are treated with an oral tablet taken twice daily containing 300 mg of the compound in Example 29.
substance,measurement,setting,value
Ac—YfHW—NH2 [Example 9],maintenance of weight loss and adiposity at the end of the treatment period,"Example B: obese human 150 kg after diet and exercise weight loss, intravenous injection once each day for 6 months, 15 ml, 5 mg/ml",maintenance of weight loss and reduced adiposity
Ac-(L-4-Chloro-Phe)(D-4-Fluoro-Phe)RW—NH2 [Example 29],weight loss and adiposity after 12 months treatment,"Example E: obese person 150 kg, oral tablet 300 mg twice daily, 12 months",weight loss and reduced adiposity
Ac—YfRW—NH2 [Example 1],weight loss at the end of the treatment period,"Example A: obese human 130 kg, intravenous injection once each day for 6 months, 15 ml aqueous solution, 5 mg/ml",measurable weight loss
3-(4-OHPh)propanoyl-(4-F-f)RW—NH2 [Example 88],maintained weight loss and adiposity at the end of the treatment period,"Example C: obese human 165 kg, diet, exercise and daily subcutaneous injection of 15 ml, 5 mg/ml, then injection once each day for additional 6 months",maintained weight loss and reduced adiposity
Ac-(L-4-Chloro-Phe)fRW(N-Me-Gly)-NH2 [Example 31],weight loss and adiposity after six-month treatment,"Example D: obese human 140 kg, implantable subcutaneous pump delivering 0.1 mg/kg over 24 hours, six months",weight loss and reduced adiposity
